The text below walks through data of US20080193976A1 (priority 2005, published 2008).

In this experiment the test system is CD4+T-cells. Format: cell-based, human.

Regarding ARGRIRNGALLRVYVPRS [Peptide 75-76], the epitope classification entry is given as “major (or significant) epitope” and the responders is reported as 22.62%.

Regarding RLVALYLAARLSWNQ [Peptide 15], the epitope classification result was “minor epitopes” and the responders was 14.29%.

As for SQDLDAIWRGFYIAG [Peptide 65], the epitope classification result is recorded as “minor epitopes” and the responders is 14.29%.

Turning to tetanus toxoid [reference compound], the positive control response result was “robust positive control responses”.
